# Test results reported in US9701651B2, “Methods of treating an overweight or obese subject” (Zafgen, Inc., priority 2008, dated 2017).
# “Also recorded” adds a separate entry of the source.
# Tested on: DIO mice
# Experiment: Weight loss study in diet-induced obese mice (oral administration)
# Format: in vivo, C57BL/6NTac mice
# Conditions: 1.0 mg/kg orally in 10% gelucire in deionised water, once a day for 7 days; mice on 60% fat diet; over the course of the 8 days; compared with vehicle group
# Method: A weight loss study was conducted in obese mice. The mice in this study were not genetically obese, but prior to and during the study, obesity was induced by a high-fat diet. Twelve week-old C57BL/6NTac mice, maintained on a 60% fat diet prior to and during the study, were separated into seven groups, eight animals per group. Average body weight of the mice was approximately 47 g at the start of the study.
# Each of […] groups was orally administered 1.0 mg/kg of a compound (fumagillin and compounds B. C, D, E, F and G), in 10% gelucire in deionised water. Compounds B-G are as follows:
# Each of these six groups was administered a different compound. One group was orally administered fumagillin at 1.0 mg/kg (ZGN-201) in 10% gelucire in deionised water, and one group was administered ([…] in deionised water(vehicle). Mice received administrations once a day for 7 days.
# (Data analyzed by ANCOVA with body weight on Day 1 as covariate followed by multiple tests against vehicle group: *p<0.05; **p<0.01, ***p<0.001.)
row,SMILES,effect on body weight (weight loss)
1,CO[C@@H]1[C@H](OC(=O)N[C@@H](C(=O)NCCC2CCCN2C)C(C)C)CC[C@]2(CO2)[C@H]1[C@@]1(C)O[C@@H]1CC=C(C)C (some centres unmarked) [D],lost weight
2,CO[C@@H]1[C@H](OC(=O)N[C@@H](C(=O)NCCN2CCCC2)C(C)C)CC[C@]2(CO2)[C@H]1[C@@]1(C)O[C@@H]1CC=C(C)C [E],lost weight
3,CO[C@@H]1[C@H](OC(=O)NCCC2CCCN2C)CC[C@]2(CO2)[C@H]1[C@@]1(C)O[C@@H]1CC=C(C)C (some centres unmarked) [C],lost weight; also recorded: losing the most weight of these four groups
4,CO[C@@H]1[C@H](OC(=O)N[C@@H](C(N)=O)C(C)C)CC[C@]2(CO2)[C@H]1[C@@]1(C)O[C@@H]1CC=C(C)C [B],lost weight
5,"CO[C@@H]1[C@H](OC(=O)/C=C/C=C/C=C/C=C/C(=O)O)CC[C@]2(CO2)[C@H]1[C@@]1(C)O[C@@H]1CC=C(C)C [fumagillin, reference compound]",lost the most weight
